Measurements reported in patent EP4417602A1, “SUBSTITUTED PYRAZOLE CARBOXAMIDES, SALTS THEREOF AND THEIR USE AS HERBICIDALLY ACTIVE SUBSTANCES” (Bayer AG, priority 2023, dated 2024).

Assays:
TRZAS [1] = assay: F. Post-emergence effects on crop plants (Tables F); format: in vivo, Triticum aestivum; conditions: crop plant
Summary of the method: (§1)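 Plants were grown in sandy loam in a greenhouse and sprayed post-emergence at the single-leaf stage, 2–3 weeks after sowing. Visual damage was scored after ca. 3 weeks against untreated controls (0% = as control, 100% = dead).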

ZEAMX [2] = assay: D. Pre-emergence effects on crop plants (Tables D); format: in vivo, Zea mays; conditions: crop plant
Source text: (§2) Seeds of mono- and dicotyledonous weed plants and crop plants were sown, in plastic or organic planting pots, in sandy loam and covered with soil. The compounds according to the invention, formulated in the form of wettable powders (WP) or as emulsifiable concentrates (EC), were applied to the surface of the covering soil as aqueous suspension or emulsion, with the addition of 0.5% of an additive, at an application rate of 6001 of water/ha (converted).
(§3) Following treatment, the pots were placed in a greenhouse and kept under optimum growth conditions for the test plants. The visual grading of the damage to the test plants was carried out after ca. 3 weeks in comparison to untreated controls (herbicidal effect in percent (%): 100% effect = plants have died off, 0% effect = as control plants).
(§4) Tables D1 to D5 below show the effects of various compounds of the general formula (I) according to Table 1 on various crop plants and an application rate corresponding to 320 g/ha or below obtained by the experimental procedure mentioned above in Biological Examples, Section C. Table D1a: pre-emergence activity at 320g/ha against ZEAMX in %

BRSNW [3] = assay: F. Post-emergence effects on crop plants (Tables F); format: in vivo, Brassica napus; conditions: application rate 320 g/ha, crop plant
Summary of the method: as §1

VIOTR = assay: C. Herbicidal pre-emergence action, weed and crop plants (Tables C); format: in vivo, Viola tricolor; conditions: application rate 320 g/ha; Table C12a
Source text: (§5) Seeds of mono- and dicotyledonous weed plants and crop plants were sown, in plastic or organic planting pots, in sandy loam and covered with soil. The compounds according to the invention, formulated in the form of wettable powders (WP) or as emulsifiable concentrates (EC), were applied to the surface of the covering soil as aqueous suspension or emulsion, with the addition of 0.5% of an additive, at an application rate of 6001 of water/ha (converted). Following treatment, the pots were placed in a greenhouse and kept under optimum growth conditions for the test plants. The visual grading of the damage to the test plants was carried out after ca. 3 weeks in comparison to untreated controls (herbicidal effect in percent (%): 100% effect = plants have died off, 0% effect = as control plants). Tables C1 to C12 below show the effects of selected compounds of the general formula (I) according to table 1 on various harmful plants and an application rate corresponding to 320 g/ha or below obtained by the experimental procedure mentioned above. Table C1: pre-emergence activity at 320g/ha against KCHSC in %

GLXMA [4] = assay: D. Pre-emergence effects on crop plants (Tables D); format: in vivo, Glycine max; conditions: crop plant
Summary of the method: (§6)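 Seeds sown in sandy loam and covered; WP or EC formulations sprayed onto the soil surface as aqueous suspension/emulsion with 0.5% additive, at 320 g/ha or below. Greenhouse-grown; visual damage scored after ca. 3 weeks against untreated controls (0% = as control, 100% = plants dead).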

TRZAS [5] = assay: D. Pre-emergence effects on crop plants (Tables D); format: in vivo, Triticum aestivum; conditions: crop plant
Source text: as §2, §3, §4

BRSNW [6] = assay: D. Pre-emergence effects on crop plants (Tables D); format: in vivo, Brassica napus; conditions: crop plant
Summary of the method: as §6

ZEAMX [7] = assay: F. Post-emergence effects on crop plants (Tables F); format: in vivo, Zea mays; conditions: crop plant
Summary of the method: as §1

KCHSC = assay: C. Herbicidal pre-emergence action, weed and crop plants (Tables C); format: in vivo, Kochia scoparia; conditions: application rate 320 g/ha; Table C1
Source text: as §5

GLXMA [8] = assay: F. Post-emergence effects on crop plants (Tables F); format: in vivo, Glycine max; conditions: application rate 320 g/ha, crop plant
Summary of the method: as §1

pre-emergence activity against ZEAMX (ZEAMX [2]; application rate 80 g/ha, Table D1b): 0%
pre-emergence activity against ZEAMX (ZEAMX [2]; application rate 320 g/ha, Table D1a): 0%
pre-emergence activity against GLXMA (GLXMA [4]; application rate 80 g/ha, Table D4b): 0%
pre-emergence activity against GLXMA (GLXMA [4]; application rate 320 g/ha, Table D4a): 0%
pre-emergence activity against TRZAS (TRZAS [5]; application rate 80 g/ha, Table D2b): 0%
pre-emergence activity against TRZAS (TRZAS [5]; application rate 320 g/ha, Table D2a): 0%
SMILES: COCc1c(C(=O)N2CCCC2(C)Cc2ccccc2F)cnn1C (single isomer, unassigned) [Example I-066]
post-emergence activity against TRZAS in % (TRZAS [1]; application rate 80 g/ha): 0%
post-emergence activity against TRZAS in % (TRZAS [1]; application rate 320 g/ha): 0%
post-emergence activity against BRSNW in % (BRSNW [3]): 0%
pre-emergence activity against VIOTR (VIOTR): 80%
pre-emergence activity against BRSNW in % (BRSNW [6]; application rate 80 g/ha): 0%
pre-emergence activity against BRSNW in % (BRSNW [6]; application rate 320 g/ha): 0%
post-emergence activity against ZEAMX in % (ZEAMX [7]; application rate 80 g/ha): 0%
post-emergence activity against ZEAMX in % (ZEAMX [7]; application rate 320 g/ha): 0%
pre-emergence activity against KCHSC (KCHSC): 100%
post-emergence activity against GLXMA in % (GLXMA [8]): 0%
